# Experimental data as given in patent US6291247A, “Methods of screening for factors that disrupt neurotrophin conformation and reduce neurotrophin biological activity” (priority 1996, dated 2001).
# Bridges are numbered along the chain shown (N, C = ends).
# Tests used:
# [1] = target: T1, NGF (Mus musculus, UniProt P01139); assay: Circular dichroism of NGF; conditions: 100 μM, 22° C.
# T1 construct: homodimer
# Description: For conformation and dimer integrity studies, 0.1 nM ^125 I-NGF was incubated in the presence or absence of Zn^2+ in HKR buffer for 2 hours at 4° C. in a total volume of 0.1 ml. For crosslinking NGF […], 0.4 mM BS^3 was added to the mixture and incubated for 30 minutes at 25° C. The reaction was quenched with reducing SDS PAGE sample buffer, electrophoresed using a linear 15% acrylamide gel and autoradiographed. To assess the dimeric nature of NGF in the presence of Zn^2+, ^125 I-NGF was electrophoresed in a non-reducing SDS PAGE system as described, autoradiographed, and the labelled proteins excised from the gels and counted. For CD studies, NGF (50 μg/ml) was dissolved in 50 mM Tris-HCl buffer and spectra recorded using a computer controlled Jasco J-600 spectropolarimeter. Samples were acquired in the absence or presence of Zn^2+ (100 μM) at 22° C. in a 2 mm quartz cell averaged over eight scans. Modification of His residues by DEPC was carried out as previously described, where the molar excess of DEPC added and the extent of reaction was determined by evaluating the loss of binding activity of the modified product.
# [2] = target: T2, TrkA; assay: Affinity cross-linking of 125I-NGF to TrkA on PC12 cells; format: binding, rat; conditions: 200 μM; result in words
# T2 construct: Receptor cross-linking studies were performed on PC12 rat pheochromocytoma cells; endogenous in cells; host or cells: PC12 rat pheochromocytoma cells (ATCC CRL 1721)
# Description: The ability of the peptides under study to interfere with binding of NGF to NGF receptors was evaluated by analysis of inhibition of the chemical cross-linking of ^251 I-NGF to the common neurotrophin receptor p75 (Chao, J. Neurobiol. 25:1373-1385 (1994)) and the specific NGF receptor TrkA (Barbacid, J. Neurobiol. 25: 1386-1403 (1994)). Immunoprecipitation and polyacrylamide gel electrphoresis of cross linked receptors allowed identification of both receptors, as shown in FIG. 7A. […] At concentrations of 200 μM, neither R11(l) nor R11(m) were able to inhibit greater than 50% of the observed ^125 I-labelling.
# The ability of the peptides derived from the 68-58/108-110 region of NGF to antagonize NGF interaction with the p75 and TrkA receptors was determined The peptides tested were bicyclic (BC) 68-58/108-110, cyclic (C) 68-58/108-110, and linear (L) 68-58/108-110, each of which are illustrated in FIGS. 2 and 5D
# Receptor cross-linking studies were performed on PC12 rat pheochromocytoma cells (ATCC CRL 1721; Greene et al., Proc. Natl. Acad. Sci. USA 73: 2424-2432 (1976)) which were maintained in RPMI1640 (Gibco) supplemented with 10% fetal calf serum (Gibco). […]
# T2 sequence (P01139 122-239): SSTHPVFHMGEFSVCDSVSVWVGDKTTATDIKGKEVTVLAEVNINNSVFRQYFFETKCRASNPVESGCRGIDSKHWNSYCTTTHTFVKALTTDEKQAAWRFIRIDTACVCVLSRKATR
# T1 sequence (P01139 122-239): as above
Compound,Mean molar ellipticity of NGF by CD [1],Covalent attachment of 125I-NGF to receptor (TrkA) [2]
[Zn+2] [Zn^2+],significant decrease,
"NH2 -Cys-Gly-Ser-Glu-Val-Pro-Asn-Ser-Ala-Arg-Cys-Cys-Val-Cys-OH (H-CGSEVPNSARCCVC-OH; disulfide 1-14, 11-12) [R11, bicyclic peptide of NGF residues 68-58/108-110, two disulfide bonds]",,effectively prevented the covalent attachment
